For assay [1], the system named is Spontaneously hypertensive rats (SHR). The experiment in a line: Acute efficacy in spontaneously hypertensive rats (SHR): telemetry blood pressure lowering after a single oral dose. It is filed as in vivo, rat. The conditions noted are these: P.O. 1.0 mpk. The source says: Acute Efficacy in Spontaneously Hypertensive Rats (SHR)
Spontaneously hypertensive rats (SHR, male, Charles River) were implanted with DSI TA11PA-C40 telemetry device (Data Sciences, Inc., St. Paul, Minn.) under isoflurane or ketamine/metomidine anesthesia. The telemetry unit catheter was inserted into the descending aorta via the femoral artery and the telemetry device was implanted subcutaneously in the left flank area. Animals were allowed to recover from surgery for 14 days before the start of any studies. Blood pressure, heart rate, and activity signals from conscious, freely moving rats were recorded continuously for 30 seconds every 10 minutes. On the day prior to administration of compound, a single oral dose of vehicle (10% transcutol/20% Cremophor/70% water) was administered to all animals to establish baseline control data. The blood pressure lowering efficacy of compound (PO) or vehicle was evaluated following a single oral gavage. Data were collected as hourly averages, and changes in blood pressure were calculated by subtracting control baseline data on an hourly basis. Animals were maintained on normal diet with a 12 hour light-dark cycle.
Maximum peak decreases of systolic blood pressure (SBP) in SHR at a particular P.O. dose (mpk milligrams per kilogram) for the following representative compounds are provided. Category A=SBP in SHRs<20 mmHg; Category B=SBP in SHRs 20-40 mmHg; Category C=SBP in SHRs>40 mmHg

Another assay has as its target T1, sGC α1/β1 heterodimer (Homo sapiens, UniProt Q02108+Q02153).
T1 construct: expressed in transfected cells; host or cells: CHO-K1 (clone #7, CHO-K1/sGC)
T1 sequence (Q02108 1-690): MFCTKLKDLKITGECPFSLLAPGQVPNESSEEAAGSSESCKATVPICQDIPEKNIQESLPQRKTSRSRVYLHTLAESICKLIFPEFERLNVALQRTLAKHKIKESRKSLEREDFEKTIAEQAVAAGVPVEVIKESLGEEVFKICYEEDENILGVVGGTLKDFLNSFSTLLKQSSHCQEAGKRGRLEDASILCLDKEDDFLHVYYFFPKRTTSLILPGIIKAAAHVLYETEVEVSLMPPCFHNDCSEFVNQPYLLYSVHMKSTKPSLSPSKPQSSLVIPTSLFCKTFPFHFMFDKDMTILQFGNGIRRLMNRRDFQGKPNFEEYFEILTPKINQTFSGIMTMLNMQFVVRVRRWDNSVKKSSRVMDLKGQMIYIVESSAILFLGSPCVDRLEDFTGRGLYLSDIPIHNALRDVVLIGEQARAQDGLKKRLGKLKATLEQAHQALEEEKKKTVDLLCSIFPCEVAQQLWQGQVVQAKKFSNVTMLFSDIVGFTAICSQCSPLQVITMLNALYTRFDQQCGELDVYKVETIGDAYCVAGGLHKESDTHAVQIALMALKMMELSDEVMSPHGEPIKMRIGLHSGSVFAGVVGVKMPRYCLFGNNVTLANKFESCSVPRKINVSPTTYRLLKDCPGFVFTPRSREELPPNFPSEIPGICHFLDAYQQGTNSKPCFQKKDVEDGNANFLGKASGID
T1 sequence (Q02153 1-619): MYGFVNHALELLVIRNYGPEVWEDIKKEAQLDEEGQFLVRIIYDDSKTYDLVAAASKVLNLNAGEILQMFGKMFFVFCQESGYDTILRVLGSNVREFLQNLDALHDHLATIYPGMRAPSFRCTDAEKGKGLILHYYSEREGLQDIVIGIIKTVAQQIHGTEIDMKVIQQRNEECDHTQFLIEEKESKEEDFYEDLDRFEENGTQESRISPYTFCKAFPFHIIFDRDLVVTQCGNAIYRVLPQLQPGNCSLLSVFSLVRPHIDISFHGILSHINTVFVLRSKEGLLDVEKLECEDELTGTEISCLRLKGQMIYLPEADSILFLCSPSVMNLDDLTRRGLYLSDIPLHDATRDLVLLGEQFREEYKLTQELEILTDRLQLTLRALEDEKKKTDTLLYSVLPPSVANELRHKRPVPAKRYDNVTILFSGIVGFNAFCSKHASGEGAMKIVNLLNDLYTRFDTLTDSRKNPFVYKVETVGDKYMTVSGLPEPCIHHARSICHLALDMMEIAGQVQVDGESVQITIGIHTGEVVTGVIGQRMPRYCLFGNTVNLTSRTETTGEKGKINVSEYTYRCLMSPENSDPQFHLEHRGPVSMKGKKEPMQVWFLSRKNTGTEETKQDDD
The experiment in a line: Cell-based sGC functional assay (CASA assay): cGMP generation in CHO-K1/sGC cells, HTRF detection. The conditions noted are these: for Emax: CHO-K1, percent activation relative to standard Compound A in CHO-K1/sGC cells, read-out: % Act.; for EC50: inflection point (IP) of cGMP generation in CHO-K1/sGC cells, 4P fit, activity expressed as percentage of Compound A. The method, boiled down: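 Stable CHO-K1/sGC cells in EBSS buffer with 5 mM MgCl2, 0.05% BSA and 0.5 mM IBMX were incubated with compound (2.5% DMSO final) ±1 μM DETA-NO for 1 hr at 37° C. cGMP was measured by HTRF. Activation is expressed as % of reference HDA Compound A maximum, with IP and max fold induction from a 4P fit.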

Molecules are shown by their SMILES.

By EC50 is commonly meant the concentration giving half of the maximal effect.

Regarding `CCc1nc(-c2nc(N)c3c(n2)NC(=O)C3(C)c2ccc(Cl)cc2)cn2ccnc12` (single isomer, unassigned) [Example 1A, 4-Amino-5-(4-chlorophenyl)-2-(8-ethylimidazo[1,2-a]pyrazin-6-yl)-5-methyl-5H-pyrrolo[2,3-d]pyrimidin-6(7H)-one], the “Maximum peak decrease of systolic blood pressure (SBP) in SHR, Cat.” value in assay [1] is recorded as “B (Category B=SBP in SHRs 20-40 mmHg)”. Besides, on sGC α1/β1 heterodimer, the Emax came to 124% and the EC50 came out at 894 nM.
In the same order, the values of `CCCc1nc(-c2nc(N)c3c(n2)NC(=O)C3(C)c2ccc(Cl)cc2)cn2ccnc12` (single isomer, unassigned) [Example 2A, 4-Amino-5-(4-chlorophenyl)-5-methyl-2-(8-propylimidazo[1,2-a]pyrazin-6-yl)-5H-pyrrolo[2,3-d]pyrimidin-6(7H)-one] are “C (Category C=SBP in SHRs>40 mmHg)”, 74% and 105 nM.
Take `CC1CN(c2nc(-c3cn4ccnc4c(CCC(F)(F)C(F)(F)F)n3)nc3c2C(C)(c2ccc(F)cc2)C(=O)N3)C1` (stereo not shown) [Example 305A, 5-(4-fluorophenyl)-5-methyl-4-(3-methylazetidin-1-yl)-2-(8-(3,3,4,4,4-pentafluorobutyl)imidazo[1,2-a]pyrazin-6-yl)-5H-pyrrolo[2,3-d]pyrimidin-6(7H)-one]: at sGC α1/β1 heterodimer, the Emax turned out to be 158% and the 50% effective concentration (EC50) was 147 nM.
For `CC1(c2ccc(F)cc2)C(=O)Nc2nc(-c3cn4ccnc4c(CCC(F)(F)C(F)(F)F)n3)nc(N3CCC3)c21` (stereo not shown) [Example 306A, 4-(azetidin-1-yl)-5-(4-fluorophenyl)-5-methyl-2-(8-(3,3,4,4,4-pentafluorobutyl)imidazo[1,2-a]pyrazin-6-yl)-5H-pyrrolo[2,3-d]pyrimidin-6(7H)-one], at sGC α1/β1 heterodimer, the Emax worked out at 108% and the EC50 amounted to 108 nM.
For the molecule `CNc1nc(-c2cn3ccnc3c(CCC(F)(F)C(F)(F)F)n2)nc2c1C(C)(c1ccc(F)cc1)C(=O)N2` (stereo not shown) [Example 307A, 5-(4-fluorophenyl)-5-methyl-4-(methylamino)-2-(8-(3,3,4,4,4-pentafluorobutyl)imidazo[1,2-a]pyrazin-6-yl)-5H-pyrrolo[2,3-d]pyrimidin-6(7H)-one], on sGC α1/β1 heterodimer, the Emax was 93% and it took 152 nM to reach a half-maximal effect (EC50).
As to `CN(C)c1nc(-c2cn3ccnc3c(CCC(F)(F)C(F)(F)F)n2)nc2c1C(C)(c1ccc(F)cc1)C(=O)N2` (stereo not shown) [Example 308A, 4-(dimethylamino)-5-(4-fluorophenyl)-5-methyl-2-(8-(3,3,4,4,4-pentafluorobutyl)imidazo[1,2-a]pyrazin-6-yl)-5H-pyrrolo[2,3-d]pyrimidin-6(7H)-one], at sGC α1/β1 heterodimer, the Emax is 126% and the EC50 came out at 281 nM.
For the molecule `COCCNc1nc(-c2cn3ccnc3c(CCC(F)(F)C(F)(F)F)n2)nc2c1C(C)(c1ccc(F)cc1)C(=O)N2` (stereo not shown) [Example 309A, 5-(4-fluorophenyl)-4-((2-methoxyethyl)amino)-5-methyl-2-(8-(3,3,4,4,4-pentafluorobutyl)imidazo[1,2-a]pyrazin-6-yl)-5H-pyrrolo[2,3-d]pyrimidin-6(7H)-one], on sGC α1/β1 heterodimer, the Emax came to 97% and the EC50 worked out at 39 nM.
In the same order, the values of `CC1(c2ccc(F)cc2)C(=O)Nc2nc(-c3cn4ccnc4c(CCC(F)(F)C(F)(F)F)n3)nc(N3CCOCC3)c21` (stereo not shown) [Example 310A, 5-(4-fluorophenyl)-5-methyl-4-morpholino-2-(8-(3,3,4,4,4-pentafluorobutyl)imidazo[1,2-a]pyrazin-6-yl)-5H-pyrrolo[2,3-d]pyrimidin-6(7H)-one] are 77% and 45 nM.
In the same order, the values of `CN(C)c1nc(-c2cn3ccnc3cn2)nc2c1C(C)(c1ccc(Cl)cc1)C(=O)N2` (stereo not shown) [Example 312A] are 93% and 25 nM.
The like results for `COCCNc1nc(-c2cn3ccnc3c(CCC(F)(F)C(F)(F)F)n2)nc2c1C(C)(C)C(=O)N2` [Example 313, 4-((2-Methoxyethyl)amino)-5,5-dimethyl-2-(8-(3,3,4,4,4-pentafluorobutyl)imidazo[1,2-a]pyrazin-6-yl)-5H-pyrrolo[2,3-d]pyrimidin-6(7H)-one] were, in that order, 93% and 25 nM.
In the case of `CCc1nc(C2(C)C(=O)Nc3nc(-c4cn5ccnc5c(CCC(F)(F)C(F)(F)F)n4)nc(N)c32)no1` (stereo not shown) [Example 320B, 4-amino-5-(5-ethyl-1,2,4-oxadiazol-3-yl)-5-methyl-2-(8-(3,3,4,4,4-pentafluorobutyl)imidazo[1,2-a]pyrazin-6-yl)-5H-pyrrolo[2,3-d]pyrimidin-6(7H)-one], on sGC α1/β1 heterodimer, the Emax came out at 204% and the concentration giving a half-maximal response (EC50) was 85 nM.
For `Nc1nc(-c2cn3ccnc3c(CCC(F)(F)F)n2)nc2c1C(c1ccc(C(F)(F)F)cn1)(C1CC1)C(=O)N2` (stereo not shown) [Example 340A, 4-amino-5-cyclopropyl-5-(5-(trifluoromethyl)pyridin-2-yl)-2-(8-(3,3,3-trifluoropropyl)imidazo[1,2-a]pyrazin-6-yl)-5H-pyrrolo[2,3-d]pyrimidin-6(7H)-one], on sGC α1/β1 heterodimer, the Emax amounted to 129% and a half-maximal effect (EC50) was put at 808 nM.
The like results for `CCCc1nc(-c2nc(N)c3c(n2)NC(=O)C3(c2ccc(C(F)(F)F)cn2)C2CC2)cn2ccnc12` (stereo not shown) [Example 341A, 4-amino-5-cyclopropyl-2-(8-propylimidazo[1,2-a]pyrazin-6-yl)-5-(5-(trifluoromethyl)pyridin-2-yl)-5H-pyrrolo[2,3-d]pyrimidin-6(7H)-one] were, in that order, 106% and 2100 nM.
For `COc1ccc(C2(C3CC3)C(=O)Nc3nc(-c4cn5ccnc5c(CCC(F)(F)C(F)(F)F)n4)nc(N)c32)cn1` (stereo not shown) [Example 343A, 4-amino-5-cyclopropyl-5-(6-methoxypyridin-3-yl)-2-(8-(3,3,4,4,4-pentafluorobutyl)imidazo[1,2-a]pyrazin-6-yl)-5H-pyrrolo[2,3-d]pyrimidin-6(7H)-one], on sGC α1/β1 heterodimer, the Emax is 121% and a half-maximal response (EC50) required 46 nM.
Regarding `Nc1nc(-c2cn3ccnc3c(CCC(F)(F)F)n2)nc2c1C(c1ncc(Cl)cn1)(C1CC1)C(=O)N2` (stereo not shown) [Example 374A, 4-amino-5-(5-chloropyrimidin-2-yl)-5-cyclopropyl-2-(8-(3,3,3-trifluoropropyl)imidazo[1,2-a]pyrazin-6-yl)-5H-pyrrolo[2,3-d]pyrimidin-6(7H)-one], on sGC α1/β1 heterodimer, the Emax is 126% and the response was half-maximal at 387 nM (EC50).
As to `Nc1nc(-c2cn3ccnc3c(CCC(F)(F)C(F)(F)F)n2)nc2c1C(c1ccccn1)(C1CC1)C(=O)N2` (stereo not shown) [Example 382B, 4-Amino-5-cyclopropyl-2-(8-(3,3,4,4,4-pentafluorobutyl)imidazo[1,2-a]pyrazin-6-yl)-5-(pyridin-2-yl)-5H-pyrrolo[2,3-d]pyrimidin-6(7H)-one], at sGC α1/β1 heterodimer, the Emax was determined as 149% and the EC50 is 453 nM.
